Assay results reported in patent US20180050082A1, “SERPINS FOR THE TREATMENT OF NEUROINFLAMMATORY DISEASES” (Anvil Biosciences, LLC, priority 2015, published 2018).
“Also recorded” adds a separate entry of the source.

Key:
[1] = test system: NMO mouse model; assay: Mouse NMO model, more severe disease (25×10^6 Th17-polarized cells), disease scores, blinded study (Example 3); assay type: in vivo, C57BL/6 mice; conditions: for End Score (end disease score +/− SD): Day 17 post-transfer, AAT 2 mg or both i.p. daily Day 4 to Day 16; for End Score (end disease score +/− SD) / MMS +/− SD (mean maximum disease score) / Mean Day of Onset +/− SEM: Mpred 0.5 mg; for MMS +/− SD (mean maximum disease score) / Mean Day of Onset +/− SEM: AAT 2 mg or both i.p. daily Day 4 to Day 16 post-transfer; for Mean Day of Onset +/− SEM: 10 mice per cohort
Method: 25×10^6 cells prepared as above were adoptively transferred i.p. into recipient C57BL/6 mice. Mice received PBS, Mpred (0.5 mg), AAT (2 mg), or both AAT+Mpred as daily doses administered i.p. starting on Day 4 post-transfer until Day 16 post-transfer. Ten recipient mice per cohort. […] The bold p-values indicate significant (p<0.05) differences between the treatments when compared to PBS (control).

[2] = test system: NMO mouse model, spines (cervical, thoracic and lumbar sections); assay: Spine histopathology scores in NMO mouse model, blinded study (Example 3); assay type: in vivo, C57BL/6 mice; conditions: spines collected Day 18; for Demyelination (H + E) score +/− SD: hematoxylin and eosin stained section, 4 mice per cohort
From the text: An NMO mouse model as described above was used. Spines were collected from 4 mice per treatment cohort on Day 18 and prepared for histology. Sections from cervical, thoracic and lumbar spine regions were scored and averaged. […] Bold formatting indicates significant (p<0.05) difference of treatment compared to PBS (control).

[3] = test system: spleen cells of Th17-polarized cell transplanted mice restimulated with MOG peptide; assay: Ex vivo cytokine measurements from spleen cells restimulated with MOG peptide, cytokine bead assay (Example 4); assay type: in vivo
Method: Ex vivo cytokine measurements from spleen cells of Th17-polarized cell transplanted mice restimulated with MOG peptide were conducted to survey effector and memory recall responses of the immune cell compartment, primarily from T cells. Spleens were collected from 6 mice per treatment cohort on Day 18. Single cell suspensions were prepared and cultured with the indicated amounts of MOG35-55 peptide. Supernatants were collected after 3 days of culture and IL-17A, IFN-γ, IL-6, or IL-2 measured by cytokine bead assay (BD Biosciences, San Jose, Calif., Cat. No. 560485). The results in this blinded study were expressed in cytokine pg/mL+/−SEM.

[4] = test system: murine model of NMO; assay: Murine model of NMO, less severe disease (12×10^6 Th17-polarized cells), disease score (Example 2); assay type: in vivo, C57BL/6 mice; conditions: FIG. 2
Method: Blood-derived human A1AT was compared to Sivelestat in a murine model of NMO. A less severe disease was induced when 12×10^6 Th17-polarized cells were adoptively transferred i.p. into recipient C57BL/6 mice. To induce Th17-polarized cells, C57BL/6 mice were induced with MOG35-55/CFA. 11 days later, their spleen cells were harvested and restimulated in culture with MOG35-55 peptide (Miller et al., supra) for 3 days.
Mice received PBS, Sivelestat (0.5 mg), or A1AT (2 mg) as daily doses administered i.p. starting on Day 5 post-transfer until Day 18 post-transfer. There were 10 recipient mice per cohort. Error bars represent SEM. Points where A1AT compared to PBS and mean disease scores were significant (p<0.05) are indicated (*).

[5] = test system: Neuromyelitis Optica (NMO) induced by the adoptive transfer of Th17 Experimental Autoimmune Encephalomyelitis (EAE) cells; assay: NMO induced by adoptive transfer of Th17 EAE cells (15×10^6 cells), clinical scores (Example 1); assay type: in vivo, C57BL/6 mice; conditions: 2 mg A1AT in PBS i.p. daily day 5 to day 18; vs PBS; n=10 mice per group
From the text: C57BL/6 donor mice were immunized via subcutaneous injection with MOG-35-55 peptide in complete Freund's Adjuvant. This induces Experimental Autoimmune Encephalomyelitis (EAE), an animal model for progressive multiple sclerosis. (Miller et al., Curr. Protoc. Immunol., Chapter Unit 15.1 (2007); incorporated herein by reference in its entirety). The mice were boosted […] via intraperitoneal injection with Pertussis toxin on day 0, 2, and 7 days post-immunization. Mice were sacrificed and spleens and lymph nodes collected and resuspended into single cell suspensions. Cells were cultured with MOG peptide and IL-23 to increase Th17 skewing and cultured for 3 days. Cells were harvested and approximately 15×10̂6 cells were adoptively transferred into recipient C57BL/6 mice via intraperitoneal injection. Starting day 5 for 2 weeks until day 18, mice were administered daily via intraperitoneal injection with 100 uL of PBS or A1AT (2 mg A1AT formulated in PBS). Clinical scores were measured each day at approximately the same time of day. Clinical scores measure ascending paralysis. A score of 1 is a limp tail. A score of 2 includes hind limb weakness. A score of 3 includes hind limb paralysis. A score of 4 includes forelimb weakness. A score of 5 is indicated by death. (See Miller et al.).

Row | Compound | End Score (end disease score +/− SD) [1] | MMS +/− SD (mean maximum disease score) [1] | Mean Day of Onset +/− SEM [1] | Demyelination (H + E) score +/− SD [2] | Apoptotic Cells +/− SD (apoptotic cell counts) ([2]; 4 mice per treatment cohort) | Inflammatory foci +/− SD (number of inflammatory foci per section >20 cells) ([2]; 4 mice per treatment cohort) | IL-17A ([3]; spleens Day 18, 6 mice per cohort, supernatants after 3 days culture with MOG35-55, FIG. 5A) | IFN-γ ([3]; spleens Day 18, 6 mice per cohort, supernatants after 3 days culture with MOG35-55, FIG. 5B) | IL-2 ([3]; without antigenic restimulation (0 MOG peptide), compared to Mpred alone, FIG. 5D) | Onset of disease ([4]; A1AT 2 mg i.p. daily Day 5 to Day 18 post-transfer) | NMO disease score ([4]; A1AT 2 mg or Sivelestat 0.5 mg i.p. daily Day 5 to Day 18 post-transfer, vs PBS) | Mean disease scores over days measured ([1]; FIG. 3, 10 recipient mice per cohort, vs PBS or either treatment alone) | Clinical scores (ascending paralysis) [5]
1 | C[C@H]1C[C@@H]2[C@H]([C@@H](O)C[C@@]3(C)[C@H]2CC[C@]3(O)C(=O)CO)[C@@]2(C)C=CC(=O)C=C12 [Mpred, methylprednisolone, reference compound] | 2.25 +/− 0.42 | 2.95 +/− 0.44 | 8.5 +/− 0.4 | 1.2 +/− 0.3 | 1.3 +/− 0.9 | 3.0 +/− 0.9 |  |  |  |  |  |  | 
2 | alpha-1 antitrypsin [A1AT] | 3.10 +/− 0.57 | 3.50 +/− 0.00 | 8.4 +/− 0.4 | 1.8 +/− 0.4 | 2.5 +/− 0.3 |  | decreased the inflammatory cytokines IL-17A compared to PBS and Mpred alone; also recorded: decreased the inflammatory cytokine IL-17A when compared to PBS and Mpred alone | decreased the inflammatory cytokine IFN-γ when compared to Mpred alone | IL-2 levels were higher without antigenic restimulation (0 MOG peptide) | delay onset of disease | reduced the NMO disease score compared to PBS (control) and was superior to Sivelestat at all days of overt signs of disease | early efficacy compared to Mpred alone and PBS (control) on Day 5 and 6 but afterwards did not show therapeutic effect | significant improvement when compared to PBS treatment
